Nc1ncccn1
Conditions	solubility (mole fraction)
in 2-butanone, 272.65 K	0.0201
in 2-butanone, 278.25 K	0.0249
in 2-butanone, 283.55 K	0.0317
in 2-butanone, 288.15 K	0.0361
in 2-butanone, 293.15 K	0.0418
in 2-butanone, 297.85 K	0.0512
in 2-butanone, 302.65 K	0.0621
in 2-butanone, 307.25 K	0.0721
in 2-butanone, 312.55 K	0.0865
in 2-butanone, 317.35 K	0.0988
in 2-butanone, 323.35 K	0.118
in 2-pentanone, 272.65 K	0.0158
in 2-pentanone, 278.25 K	0.0192
in 2-pentanone, 283.55 K	0.0238
in 2-pentanone, 288.15 K	0.027
in 2-pentanone, 293.15 K	0.0309
in 2-pentanone, 297.85 K	0.0372
in 2-pentanone, 302.65 K	0.0446
in 2-pentanone, 307.25 K	0.0513
in 2-pentanone, 312.55 K	0.0603
in 2-pentanone, 317.35 K	0.0684
in 2-pentanone, 323.35 K	0.0808
in acetone, 272.65 K	0.0222
in acetone, 278.25 K	0.027
in acetone, 283.55 K	0.0311
in acetone, 288.15 K	0.0359
in acetone, 293.15 K	0.0415
in acetone, 297.85 K	0.0478
in acetone, 302.65 K	0.0545
in acetone, 307.25 K	0.0618
in acetone, 312.55 K	0.0702
in acetone, 317.35 K	0.0802
in acetone, 323.35 K	0.0913
in acetonitrile, 272.65 K	0.0108
in acetonitrile, 278.25 K	0.0128
in acetonitrile, 283.55 K	0.0156
in acetonitrile, 288.15 K	0.0176
in acetonitrile, 293.15 K	0.0203
in acetonitrile, 297.85 K	0.0251
in acetonitrile, 302.65 K	0.0308
in acetonitrile, 307.25 K	0.0366
in acetonitrile, 312.55 K	0.0449
in acetonitrile, 317.35 K	0.0531
in acetonitrile, 323.35 K	0.0661
in cyclohexanone, 272.65 K	0.0371
in cyclohexanone, 278.25 K	0.0457
in cyclohexanone, 283.55 K	0.0529
in cyclohexanone, 288.15 K	0.0618
in cyclohexanone, 293.15 K	0.072
in cyclohexanone, 297.85 K	0.0835
in cyclohexanone, 302.65 K	0.0952
in cyclohexanone, 307.25 K	0.109
in cyclohexanone, 312.55 K	0.124
in cyclohexanone, 317.35 K	0.143
in cyclohexanone, 323.35 K	0.164
in cyclopentanone, 272.65 K	0.0605
in cyclopentanone, 278.25 K	0.0721
in cyclopentanone, 283.55 K	0.0815
in cyclopentanone, 288.15 K	0.0918
in cyclopentanone, 293.15 K	0.103
in cyclopentanone, 297.85 K	0.116
in cyclopentanone, 302.65 K	0.128
in cyclopentanone, 307.25 K	0.14
in cyclopentanone, 312.55 K	0.154
in cyclopentanone, 317.35 K	0.169
in cyclopentanone, 323.35 K	0.185
in ethanol, 272.65 K	0.00996
in ethanol, 278.25 K	0.0138
in ethanol, 283.55 K	0.0184
in ethanol, 288.15 K	0.0234
in ethanol, 293.15 K	0.0302
in ethanol, 297.85 K	0.0384
in ethanol, 302.65 K	0.0485
in ethanol, 307.25 K	0.06
in ethanol, 312.55 K	0.0765
in ethanol, 317.35 K	0.0945
in ethanol, 323.35 K	0.123
in ethyl acetate, 272.65 K	0.0337
in ethyl acetate, 278.25 K	0.0366
in ethyl acetate, 283.55 K	0.0407
in ethyl acetate, 288.15 K	0.0436
in ethyl acetate, 293.15 K	0.0474
in ethyl acetate, 297.85 K	0.0536
in ethyl acetate, 302.65 K	0.0609
in ethyl acetate, 307.25 K	0.0678
in ethyl acetate, 312.55 K	0.0779
in ethyl acetate, 317.35 K	0.0867
in ethyl acetate, 323.35 K	0.101
in ethyl formate, 272.65 K	0.0286
in ethyl formate, 278.25 K	0.0364
in ethyl formate, 283.55 K	0.0471
in ethyl formate, 288.15 K	0.0542
in ethyl formate, 293.15 K	0.0631
in ethyl formate, 297.85 K	0.0772
in ethyl formate, 302.65 K	0.0928
in ethyl formate, 307.25 K	0.106
in ethyl formate, 312.55 K	0.125
in ethyl formate, 317.35 K	0.14
in ethyl formate, 323.35 K	0.163
in isobutanol, 272.65 K	0.00833
in isobutanol, 278.25 K	0.0116
in isobutanol, 283.55 K	0.0155
in isobutanol, 288.15 K	0.02
in isobutanol, 293.15 K	0.0259
in isobutanol, 297.85 K	0.0331
in isobutanol, 302.65 K	0.0423
in isobutanol, 307.25 K	0.0528
in isobutanol, 312.55 K	0.0669
in isobutanol, 317.35 K	0.0828
in isobutanol, 323.35 K	0.107
in isopentanol, 272.65 K	0.0102
in isopentanol, 278.25 K	0.0136
in isopentanol, 283.55 K	0.0174
in isopentanol, 288.15 K	0.0215
in isopentanol, 293.15 K	0.0264
in isopentanol, 297.85 K	0.0321
in isopentanol, 302.65 K	0.0385
in isopentanol, 307.25 K	0.0458
in isopentanol, 312.55 K	0.0546
in isopentanol, 317.35 K	0.0638
in isopentanol, 323.35 K	0.0769
in isopropanol, 272.65 K	0.00686
in isopropanol, 278.25 K	0.00999
in isopropanol, 283.55 K	0.0139
in isopropanol, 288.15 K	0.0184
in isopropanol, 293.15 K	0.025
in isopropanol, 297.85 K	0.0325
in isopropanol, 302.65 K	0.0422
in isopropanol, 307.25 K	0.0539
in isopropanol, 312.55 K	0.0718
in isopropanol, 317.35 K	0.0918
in isopropanol, 323.35 K	0.122
in methanol, 272.65 K	0.0213
in methanol, 278.25 K	0.028
in methanol, 283.55 K	0.0359
in methanol, 288.15 K	0.0444
in methanol, 293.15 K	0.0554
in methanol, 297.85 K	0.0675
in methanol, 302.65 K	0.0823
in methanol, 307.25 K	0.0984
in methanol, 312.55 K	0.121
in methanol, 317.35 K	0.145
in methanol, 323.35 K	0.18
in methyl acetate, 272.65 K	0.0189
in methyl acetate, 278.25 K	0.0234
in methyl acetate, 283.55 K	0.0296
in methyl acetate, 288.15 K	0.0341
in methyl acetate, 293.15 K	0.0397
in methyl acetate, 297.85 K	0.0488
in methyl acetate, 302.65 K	0.0596
in methyl acetate, 307.25 K	0.0694
in methyl acetate, 312.55 K	0.0838
in methyl acetate, 317.35 K	0.0956
in methyl acetate, 323.35 K	0.115
in n-butanol, 272.65 K	0.00804
in n-butanol, 278.25 K	0.0114
in n-butanol, 283.55 K	0.0157
in n-butanol, 288.15 K	0.0205
in n-butanol, 293.15 K	0.027
in n-butanol, 297.85 K	0.0349
in n-butanol, 302.65 K	0.0449
in n-butanol, 307.25 K	0.0569
in n-butanol, 312.55 K	0.0743
in n-butanol, 317.35 K	0.0934
in n-butanol, 323.35 K	0.123
in n-pentanol, 272.65 K	0.0117
in n-pentanol, 278.25 K	0.0147
in n-pentanol, 283.55 K	0.0182
in n-pentanol, 288.15 K	0.0219
in n-pentanol, 293.15 K	0.0264
in n-pentanol, 297.85 K	0.0314
in n-pentanol, 302.65 K	0.0373
in n-pentanol, 307.25 K	0.0437
in n-pentanol, 312.55 K	0.0521
in n-pentanol, 317.35 K	0.0609
in n-pentanol, 323.35 K	0.0733
in n-propanol, 272.65 K	0.0142
in n-propanol, 278.25 K	0.0187
in n-propanol, 283.55 K	0.0243
in n-propanol, 288.15 K	0.03
in n-propanol, 293.15 K	0.0377
in n-propanol, 297.85 K	0.0462
in n-propanol, 302.65 K	0.0567
in n-propanol, 307.25 K	0.0687
in n-propanol, 312.55 K	0.0849
in n-propanol, 317.35 K	0.102
in n-propanol, 323.35 K	0.127

From BigSolDB 2.1
